In PubChem BioAssay AID2739 (Broad Institute, 2010):
Results filed as inconclusive are left out. The source made the active and inactive calls.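 The calls were made as follows: active = IC50 no more than tenfold above the highest tested concentration; inconclusive = flat fit with activity between 30% and 70%, or an invalid poor fit; inactive = IC50 beyond tenfold over the top concentration.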

Each molecule was assayed against Zinc finger protein mex-5 (Caenorhabditis elegans) (UniProt Q9XUB2) (assay: blockers of C. elegans MEX-5/TCR-2 RNA interaction – biochemical, fluorescence polarization, MBP-MEX-5, FITC-TCR2 RNA, dose response (AID 2739)). Details: MBP-MEX-5 / FITC-TCR2 RNA fluorescence polarization, 1 h.
Chain of Zinc finger protein mex-5 (Caenorhabditis elegans) (Q9XUB2 whole entry, looked up): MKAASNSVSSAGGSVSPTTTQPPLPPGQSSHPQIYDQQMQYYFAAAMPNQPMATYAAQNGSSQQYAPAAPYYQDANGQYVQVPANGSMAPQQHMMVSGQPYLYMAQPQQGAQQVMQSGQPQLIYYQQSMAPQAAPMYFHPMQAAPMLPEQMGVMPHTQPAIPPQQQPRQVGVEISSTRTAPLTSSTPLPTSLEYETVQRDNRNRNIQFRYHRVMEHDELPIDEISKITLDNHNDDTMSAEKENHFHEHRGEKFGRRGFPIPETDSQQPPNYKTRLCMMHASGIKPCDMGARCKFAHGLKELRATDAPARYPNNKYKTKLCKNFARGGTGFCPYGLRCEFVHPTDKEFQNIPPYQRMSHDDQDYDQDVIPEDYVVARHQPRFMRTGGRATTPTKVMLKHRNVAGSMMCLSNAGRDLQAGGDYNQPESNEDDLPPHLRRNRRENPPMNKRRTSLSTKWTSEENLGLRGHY

Row | SMILES | IC50
1 | NC(CO)C(=O)NNCc1ccc(O)c(O)c1O (stereo not drawn) | > 135000 nM (inactive)
2 | COCCCNC(=O)CCC(=O)NNc1nc2ccccc2c2nc(C)nn12 | 1640 nM
3 | O=C(NNC(=O)c1ccccc1[N+](=O)[O-])c1csc(N2CCOCC2)n1 | 1310 nM
4 | CCc1ccccc1N1C(=O)/C(=C\c2ccc(N3CCN(C)CC3)o2)C(=O)NC1=S | > 135000 nM (inactive)
5 | Cc1nc(N=Nc2ccc(O)cc2)n[nH]1 | 16100 nM
6 | N=c1c(C(=O)NC2CCCCC2)cc2c(=O)n3ccccc3nc2n1Cc1ccc(F)cc1 | > 135000 nM (inactive)
7 | Cn1ncc2c(NNC(=O)Cc3ccccc3)ncnc21 | 1310 nM
8 | CCCCN(C)C(=O)CCC(=O)NNc1nc2ccccc2c2nc(C)nn12 | 4170 nM
9 | CCOCCCNC(=O)CCC(=O)NNc1nc2ccccc2c2nc(C)nn12 | 2280 nM
10 | N=c1c(C(=O)NC2CCCCC2)cc2c(=O)n3ccccc3nc2n1Cc1cccnc1 | > 350000 nM (inactive)
11 | O=c1c(O)cccc2cc(O)c(O)c(O)c12 | 2030 nM
12 | Cc1ncc(CO)c(/C=N/NC(=O)c2cc(Br)ccc2O)c1O | 7890 nM
13 | CCN(CC)c1ccc(/C=C2\C(=O)NC(=S)N(C)C2=O)o1 | > 135000 nM (inactive)
14 | Cc1ccc(N2C(=O)NC(=O)/C(=C\c3cc(C)n(-c4ccc(C(=O)O)cc4)c3C)C2=O)cc1 | > 135000 nM (inactive)
15 | Cc1nc2ccccc2c(=O)n1/N=C/c1ccc(O)c(O)c1O | 924 nM
16 | CCc1ccc(C(=O)NNC(=O)c2ccc(=O)n(C)n2)cc1 | 9250 nM
17 | COCCNC(=O)CCC(=O)NNc1nc2ccccc2c2nc(C)nn12 | 1490 nM
18 | Cc1cnc(C(=O)NNC(=O)c2ccc(Br)cc2)cn1 | 1080 nM
19 | COc1ccc(-c2cn[nH]c2-c2ccc(OCC(=O)NN)cc2O)cc1OC | 1580 nM
20 | CC1=C(C(=O)OCc2ccccc2)C(c2ccccc2[N+](=O)[O-])NC(=O)N1C (stereo not drawn) | 32400 nM
21 | CCN(CC)c1ccc(/C=C2\C(=O)NC(=S)N(c3ccc(OC)cc3OC)C2=O)o1 | > 135000 nM (inactive)
22 | CCOC(=O)c1cc(CC)sc1/N=C/c1c(O)[nH]c(=S)[nH]c1=O | > 350000 nM (inactive)
23 | CCOC(=O)C1CCN(C(=O)CCC(=O)NNc2nc3ccccc3c3nc(C)nn23)CC1 | 2390 nM
